Measured values as given in ChEMBL document CHEMBL5154644, “Design, Synthesis, and Structure-Activity Relationship Optimization of Pyrazolopyrimidine Amide Inhibitors of Phosphoinositide 3-Kinase γ (PI3Kγ)” (J Med Chem, 2022).

Test system: not listed separately
Experiment: Metabolic stability in rat hepatocyte assessed as intrinsic clearance per 10^8 cells at 0.5 uM by LC-MS/MS analysis
Type: ADME, cell-based
Conditions: hepatocytes

Row | hepatocyte intrinsic clearance | Compound
1 | < 1.2 µL/min | C[C@@H](C1CC1)N1Cc2cc(-c3ccn4nc(N)c(C(=O)NC5CC5)c4n3)cc(OC(F)(F)F)c2C1=O
2 | 10.8 µL/min | Cc1cc(-c2ccn3nc(N)c(C(=O)N[C@H]4CC[C@H](O)CC4)c3n2)cc2c1C(=O)N([C@@H](C)C1CC1)C2
3 | 8.28 µL/min | C[C@H](N1Cc2cc(-c3ccn4nc(N)c(C(=O)N[C@@H](CO)C5CC5)c4n3)cc(OC(F)F)c2C1=O)C(F)(F)F
4 | < 1.2 µL/min | C[C@@H](C1CC1)N1Cc2cc(-c3ccn4nc(N)c(C(=O)NC5CC5)c4n3)cc(NS(C)(=O)=O)c2C1=O

Species on record: Homo sapiens
Experiment: Selectivity ratio of IC50 for inhibition of PI3Kalpha (unknown origin) to IC50 for inhibition of PI3Kgamma (unknown origin)
Conditions: not given

Row | Ratio IC50 | Compound
5 | 411 | C[C@@H](C1CC1)N1Cc2cc(-c3ccn4nc(N)c(C(=O)NC5CC5)c4n3)cc(OC(F)(F)F)c2C1=O
6 | 156 | Cc1cc(-c2ccn3nc(N)c(C(=O)N[C@H]4CC[C@H](O)CC4)c3n2)cc2c1C(=O)N([C@@H](C)C1CC1)C2
7 | 385 | C[C@H](N1Cc2cc(-c3ccn4nc(N)c(C(=O)N[C@@H](CO)C5CC5)c4n3)cc(OC(F)F)c2C1=O)C(F)(F)F

Molecular target: T1, Phosphatidylinositol 4,5-bisphosphate 3-kinase catalytic subunit gamma isoform (Homo sapiens, UniProt P48736)
Experiment: Inhibition of PI3Kgamma (unknown origin) in […] stimulated human THP-1 cells assessed as reduction in Akt phosphorylation level at Ser473 residue preincubated for 60 mins followed by rhMCP-1 stimulation and measured after 2 mins by AlphaLisa assay
Type: cell-based
Conditions: not given

T1 sequence (P48736 whole entry, canonical isoform): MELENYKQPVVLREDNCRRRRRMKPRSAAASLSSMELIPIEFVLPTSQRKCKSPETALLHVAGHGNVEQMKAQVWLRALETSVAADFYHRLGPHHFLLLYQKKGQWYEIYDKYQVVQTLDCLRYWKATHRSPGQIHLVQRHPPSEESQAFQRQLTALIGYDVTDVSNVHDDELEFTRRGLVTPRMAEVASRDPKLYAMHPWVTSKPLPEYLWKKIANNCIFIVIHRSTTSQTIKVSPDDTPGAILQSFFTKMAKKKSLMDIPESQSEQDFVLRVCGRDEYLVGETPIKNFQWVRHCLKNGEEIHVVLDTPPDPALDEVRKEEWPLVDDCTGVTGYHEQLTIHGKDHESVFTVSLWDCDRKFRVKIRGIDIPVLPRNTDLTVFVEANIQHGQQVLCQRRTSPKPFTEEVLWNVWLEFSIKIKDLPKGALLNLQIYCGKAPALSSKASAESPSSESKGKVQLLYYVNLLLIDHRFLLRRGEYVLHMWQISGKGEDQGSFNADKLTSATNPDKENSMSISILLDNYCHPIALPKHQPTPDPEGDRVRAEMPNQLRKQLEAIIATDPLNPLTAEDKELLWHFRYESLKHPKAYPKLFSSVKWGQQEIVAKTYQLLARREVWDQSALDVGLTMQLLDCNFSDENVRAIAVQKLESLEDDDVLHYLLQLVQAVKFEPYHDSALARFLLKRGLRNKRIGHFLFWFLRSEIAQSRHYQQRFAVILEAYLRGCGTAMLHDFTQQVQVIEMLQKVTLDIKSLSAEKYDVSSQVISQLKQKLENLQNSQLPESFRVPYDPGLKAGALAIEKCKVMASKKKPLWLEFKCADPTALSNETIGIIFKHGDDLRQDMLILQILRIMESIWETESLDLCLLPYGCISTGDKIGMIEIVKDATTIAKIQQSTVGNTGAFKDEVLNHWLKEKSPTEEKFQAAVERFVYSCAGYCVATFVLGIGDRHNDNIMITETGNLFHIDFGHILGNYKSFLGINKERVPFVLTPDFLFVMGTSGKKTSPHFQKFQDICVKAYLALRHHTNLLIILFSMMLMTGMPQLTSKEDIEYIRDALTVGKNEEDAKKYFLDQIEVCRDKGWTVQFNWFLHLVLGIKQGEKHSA

Row | IC50 | Compound
8 | 58 nM | C[C@@H](C1CC1)N1Cc2cc(-c3ccn4nc(N)c(C(=O)NC5CC5)c4n3)cc(OC(F)(F)F)c2C1=O
9 | 106 nM | Cc1cc(-c2ccn3nc(N)c(C(=O)N[C@H]4CC[C@H](O)CC4)c3n2)cc2c1C(=O)N([C@@H](C)C1CC1)C2
10 | 68 nM | C[C@H](N1Cc2cc(-c3ccn4nc(N)c(C(=O)N[C@@H](CO)C5CC5)c4n3)cc(OC(F)F)c2C1=O)C(F)(F)F
11 | 37 nM | C[C@@H](C1CC1)N1Cc2cc(-c3ccn4nc(N)c(C(=O)NC5CC5)c4n3)cc(NS(C)(=O)=O)c2C1=O

Molecular target: T1, Phosphatidylinositol 4,5-bisphosphate 3-kinase catalytic subunit gamma isoform
Experiment: Inhibition of PI3Kgamma (unknown origin) using PIP2 as substrate preincubated for 1 hr followed by substrate addition and measured after 60 mins in presence of ATP by ADP-glo assay
Conditions: not given

Row | IC50 | Compound
12 | 3.6 nM | C[C@@H](C1CC1)N1Cc2cc(-c3ccn4nc(N)c(C(=O)NC5CC5)c4n3)cc(OC(F)(F)F)c2C1=O
13 | 1.2 nM | Cc1cc(-c2ccn3nc(N)c(C(=O)N[C@H]4CC[C@H](O)CC4)c3n2)cc2c1C(=O)N([C@@H](C)C1CC1)C2
14 | 3.4 nM | C[C@H](N1Cc2cc(-c3ccn4nc(N)c(C(=O)N[C@@H](CO)C5CC5)c4n3)cc(OC(F)F)c2C1=O)C(F)(F)F
15 | 2.7 nM | C[C@@H](C1CC1)N1Cc2cc(-c3ccn4nc(N)c(C(=O)NC5CC5)c4n3)cc(NS(C)(=O)=O)c2C1=O

Molecular target: T1, Phosphatidylinositol 4,5-bisphosphate 3-kinase catalytic subunit gamma isoform
Experiment: Inhibition of PI3Kgamma in SDF-1alpha stimulated human whole blood assessed as reduction in phospho-AKT kinase activity preincubated for 1 hr followed by SDF-1alpha stimulation and measured after 2 mins by flow cytometric analysis
Type: tissue-based
Conditions: not given

Row | IC50 | Compound
16 | 600 nM | C[C@H](N1Cc2cc(-c3ccn4nc(N)c(C(=O)N[C@@H](CO)C5CC5)c4n3)cc(OC(F)F)c2C1=O)C(F)(F)F

Test system: not listed separately
Experiment: Hepatic clearance in Sprague-Dawley rat by LC-MS/MS analysis
Type: ADME
Conditions: in vivo

Row | CLH | Compound
17 | 8.3 mL/min/kg | C[C@@H](C1CC1)N1Cc2cc(-c3ccn4nc(N)c(C(=O)NC5CC5)c4n3)cc(OC(F)(F)F)c2C1=O
18 | 50 mL/min/kg | Cc1cc(-c2ccn3nc(N)c(C(=O)N[C@H]4CC[C@H](O)CC4)c3n2)cc2c1C(=O)N([C@@H](C)C1CC1)C2
19 | 12 mL/min/kg | C[C@@H](C1CC1)N1Cc2cc(-c3ccn4nc(N)c(C(=O)NC5CC5)c4n3)cc(NS(C)(=O)=O)c2C1=O

Molecular target: Phosphatidylinositol 4,5-bisphosphate 3-kinase catalytic subunit alpha isoform (Homo sapiens, UniProt P42336)
Experiment: Inhibition of PI3Kalpha (unknown origin) using PIP2 as substrate preincubated for 1 hr followed by substrate addition and measured after 60 mins in presence of ATP by ADP-glo assay
Conditions: not given

Chain of Phosphatidylinositol 4,5-bisphosphate 3-kinase catalytic subunit alpha isoform (P42336 whole entry, canonical isoform): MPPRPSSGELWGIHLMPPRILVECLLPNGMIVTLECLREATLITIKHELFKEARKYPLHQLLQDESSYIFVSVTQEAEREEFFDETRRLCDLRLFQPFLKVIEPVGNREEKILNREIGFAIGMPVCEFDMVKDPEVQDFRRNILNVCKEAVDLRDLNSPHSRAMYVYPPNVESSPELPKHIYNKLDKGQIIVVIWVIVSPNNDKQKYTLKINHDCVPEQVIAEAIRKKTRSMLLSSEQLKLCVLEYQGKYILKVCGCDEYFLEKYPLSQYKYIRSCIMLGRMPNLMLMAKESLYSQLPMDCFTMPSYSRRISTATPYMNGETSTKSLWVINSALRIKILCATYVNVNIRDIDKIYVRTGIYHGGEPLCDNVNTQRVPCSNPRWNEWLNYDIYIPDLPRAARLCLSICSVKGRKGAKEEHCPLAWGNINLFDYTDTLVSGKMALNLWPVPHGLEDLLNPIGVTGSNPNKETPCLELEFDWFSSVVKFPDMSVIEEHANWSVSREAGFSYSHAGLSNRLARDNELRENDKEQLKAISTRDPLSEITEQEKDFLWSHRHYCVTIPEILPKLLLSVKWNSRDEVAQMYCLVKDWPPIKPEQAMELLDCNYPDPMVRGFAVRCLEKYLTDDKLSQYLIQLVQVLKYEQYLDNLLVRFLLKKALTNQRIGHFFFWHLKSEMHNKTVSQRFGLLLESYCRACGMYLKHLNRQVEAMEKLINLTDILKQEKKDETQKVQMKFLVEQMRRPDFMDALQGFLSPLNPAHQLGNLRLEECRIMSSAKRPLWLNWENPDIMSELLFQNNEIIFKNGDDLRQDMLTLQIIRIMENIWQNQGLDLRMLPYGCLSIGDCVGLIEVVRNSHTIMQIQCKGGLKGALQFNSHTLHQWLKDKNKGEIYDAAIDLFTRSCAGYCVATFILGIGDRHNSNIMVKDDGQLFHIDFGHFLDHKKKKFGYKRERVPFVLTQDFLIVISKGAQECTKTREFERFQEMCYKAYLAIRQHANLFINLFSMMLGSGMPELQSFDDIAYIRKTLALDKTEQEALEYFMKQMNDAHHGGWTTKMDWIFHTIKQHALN

Row | IC50 | Compound
20 | 1480 nM | C[C@@H](C1CC1)N1Cc2cc(-c3ccn4nc(N)c(C(=O)NC5CC5)c4n3)cc(OC(F)(F)F)c2C1=O
21 | 188 nM | Cc1cc(-c2ccn3nc(N)c(C(=O)N[C@H]4CC[C@H](O)CC4)c3n2)cc2c1C(=O)N([C@@H](C)C1CC1)C2
22 | 1320 nM | C[C@H](N1Cc2cc(-c3ccn4nc(N)c(C(=O)N[C@@H](CO)C5CC5)c4n3)cc(OC(F)F)c2C1=O)C(F)(F)F
23 | 590 nM | C[C@@H](C1CC1)N1Cc2cc(-c3ccn4nc(N)c(C(=O)NC5CC5)c4n3)cc(NS(C)(=O)=O)c2C1=O

Test system: not listed separately
Experiment: Metabolic stability in human hepatocytes assessed as intrinsic clearance per 10^6 cells at 0.5 uM by LC-MS/MS analysis
Type: ADME, cell-based, Hepatocyte
Conditions: read-out: CLH

Row | hepatocyte CLint at 0.5 µM | Compound
24 | 1.67 µL/min/1e6 cells | C[C@@H](C1CC1)N1Cc2cc(-c3ccn4nc(N)c(C(=O)NC5CC5)c4n3)cc(OC(F)(F)F)c2C1=O
25 | 4.76 µL/min/1e6 cells | Cc1cc(-c2ccn3nc(N)c(C(=O)N[C@H]4CC[C@H](O)CC4)c3n2)cc2c1C(=O)N([C@@H](C)C1CC1)C2
26 | 7.17 µL/min/1e6 cells | C[C@H](N1Cc2cc(-c3ccn4nc(N)c(C(=O)N[C@@H](CO)C5CC5)c4n3)cc(OC(F)F)c2C1=O)C(F)(F)F
27 | < 1.2 µL/min/1e6 cells | C[C@@H](C1CC1)N1Cc2cc(-c3ccn4nc(N)c(C(=O)NC5CC5)c4n3)cc(NS(C)(=O)=O)c2C1=O

Molecular target: CYP3A4 (Homo sapiens, UniProt P08684)
Experiment: in vitro
Conditions: human liver microsomes, probe midazolam
Description: Time dependent inhibition of CYP3A4 in human liver microsomes at 10 uM using midazolam as substrate preincubated for 30 mins in presence of NADPH by LC/MS/MS analysis relative to control

Chain of CYP3A4 (P08684 whole entry): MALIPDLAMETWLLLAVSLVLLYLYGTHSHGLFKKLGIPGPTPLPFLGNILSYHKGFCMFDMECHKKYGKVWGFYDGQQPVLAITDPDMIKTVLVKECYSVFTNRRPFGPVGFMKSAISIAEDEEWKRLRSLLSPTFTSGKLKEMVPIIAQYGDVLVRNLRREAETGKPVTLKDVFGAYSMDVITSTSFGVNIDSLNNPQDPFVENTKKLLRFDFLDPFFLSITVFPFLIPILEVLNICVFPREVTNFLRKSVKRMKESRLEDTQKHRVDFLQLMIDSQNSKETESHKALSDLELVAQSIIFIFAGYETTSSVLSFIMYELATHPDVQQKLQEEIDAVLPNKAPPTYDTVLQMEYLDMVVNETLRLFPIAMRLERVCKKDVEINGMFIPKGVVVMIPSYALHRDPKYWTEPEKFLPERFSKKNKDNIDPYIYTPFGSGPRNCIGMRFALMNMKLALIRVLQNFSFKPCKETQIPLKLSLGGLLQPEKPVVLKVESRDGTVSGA

Row | inhibition at 30 min, 10 µM | Compound
28 | 20% | C[C@@H](C1CC1)N1Cc2cc(-c3ccn4nc(N)c(C(=O)NC5CC5)c4n3)cc(OC(F)(F)F)c2C1=O
29 | 26% | Cc1cc(-c2ccn3nc(N)c(C(=O)N[C@H]4CC[C@H](O)CC4)c3n2)cc2c1C(=O)N([C@@H](C)C1CC1)C2
30 | 37% | C[C@@H](C1CC1)N1Cc2cc(-c3ccn4nc(N)c(C(=O)NC5CC5)c4n3)cc(NS(C)(=O)=O)c2C1=O

Molecular target: T2, Phosphatidylinositol 4,5-bisphosphate 3-kinase catalytic subunit delta isoform (Homo sapiens, UniProt O00329)
T2 sequence (O00329 whole entry): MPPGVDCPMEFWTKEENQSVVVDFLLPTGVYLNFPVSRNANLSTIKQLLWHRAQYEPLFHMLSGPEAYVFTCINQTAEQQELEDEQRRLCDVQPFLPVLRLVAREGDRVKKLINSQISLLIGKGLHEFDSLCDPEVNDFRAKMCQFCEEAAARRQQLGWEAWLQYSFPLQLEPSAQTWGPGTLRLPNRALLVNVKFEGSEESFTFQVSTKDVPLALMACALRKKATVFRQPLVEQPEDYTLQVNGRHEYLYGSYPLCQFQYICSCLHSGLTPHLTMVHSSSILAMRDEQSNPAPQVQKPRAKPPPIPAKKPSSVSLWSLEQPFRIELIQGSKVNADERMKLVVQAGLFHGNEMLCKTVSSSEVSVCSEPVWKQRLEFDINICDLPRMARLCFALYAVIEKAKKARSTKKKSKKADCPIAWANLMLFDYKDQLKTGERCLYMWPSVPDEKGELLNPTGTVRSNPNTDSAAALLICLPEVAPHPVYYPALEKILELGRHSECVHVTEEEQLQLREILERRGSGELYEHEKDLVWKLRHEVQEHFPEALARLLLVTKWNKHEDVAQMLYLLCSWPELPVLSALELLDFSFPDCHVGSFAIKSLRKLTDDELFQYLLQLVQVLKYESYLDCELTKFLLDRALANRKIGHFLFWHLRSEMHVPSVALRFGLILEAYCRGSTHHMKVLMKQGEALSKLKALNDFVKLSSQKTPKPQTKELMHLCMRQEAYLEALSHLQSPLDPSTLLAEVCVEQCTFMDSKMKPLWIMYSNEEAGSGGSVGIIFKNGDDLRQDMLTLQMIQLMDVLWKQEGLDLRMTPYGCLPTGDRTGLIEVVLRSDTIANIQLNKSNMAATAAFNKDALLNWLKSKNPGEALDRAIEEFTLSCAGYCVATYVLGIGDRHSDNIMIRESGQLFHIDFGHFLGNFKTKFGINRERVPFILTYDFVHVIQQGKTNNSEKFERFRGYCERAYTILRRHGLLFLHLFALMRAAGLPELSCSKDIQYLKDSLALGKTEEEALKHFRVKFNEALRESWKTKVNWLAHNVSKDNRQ
Experiment: Inhibition of PI3Kdelta (unknown origin) using PIP2 as substrate preincubated for 1 hr followed by substrate addition and measured after 60 mins in presence of ATP by ADP-glo assay
Conditions: not given

Row | IC50 | Compound
31 | 1860 nM | C[C@@H](C1CC1)N1Cc2cc(-c3ccn4nc(N)c(C(=O)NC5CC5)c4n3)cc(OC(F)(F)F)c2C1=O
32 | 61 nM | Cc1cc(-c2ccn3nc(N)c(C(=O)N[C@H]4CC[C@H](O)CC4)c3n2)cc2c1C(=O)N([C@@H](C)C1CC1)C2
33 | 419 nM | C[C@H](N1Cc2cc(-c3ccn4nc(N)c(C(=O)N[C@@H](CO)C5CC5)c4n3)cc(OC(F)F)c2C1=O)C(F)(F)F
34 | 417 nM | C[C@@H](C1CC1)N1Cc2cc(-c3ccn4nc(N)c(C(=O)NC5CC5)c4n3)cc(NS(C)(=O)=O)c2C1=O

Species on record: Homo sapiens
Experiment: Selectivity ratio of IC50 for inhibition of PI3Kdelta (unknown origin) to IC50 for inhibition of PI3Kgamma (unknown origin)
Conditions: not given

Row | Ratio IC50 | Compound
35 | 518 | C[C@@H](C1CC1)N1Cc2cc(-c3ccn4nc(N)c(C(=O)NC5CC5)c4n3)cc(OC(F)(F)F)c2C1=O
36 | 51 | Cc1cc(-c2ccn3nc(N)c(C(=O)N[C@H]4CC[C@H](O)CC4)c3n2)cc2c1C(=O)N([C@@H](C)C1CC1)C2
37 | 122 | C[C@H](N1Cc2cc(-c3ccn4nc(N)c(C(=O)N[C@@H](CO)C5CC5)c4n3)cc(OC(F)F)c2C1=O)C(F)(F)F
38 | 157 | C[C@@H](C1CC1)N1Cc2cc(-c3ccn4nc(N)c(C(=O)NC5CC5)c4n3)cc(NS(C)(=O)=O)c2C1=O
